# pIC50: −log10 of the molar value. Read-outs that look alike come from different tables or passages of the source.
# Legend:
# [1] = molecular target: recombinant human Mcl-1 (residues 171-327) / Bim interaction (Homo sapiens (Human), UniProt Q07820); assay: biochemical; format: binding; conditions: read-out: Mcl-1 HTRF IC50
# [2] = tested on: human multiple myeloma cell line, OPM-2; assay: Cell viability assay (OPM-2 10 FBS), CellTiter-Glo; format: cell-based
# Summary of the method: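 Steps: plate cells at 3000/well in 10% FBS growth medium, add serially diluted compound, incubate 16 h at 37 °C with 5% CO2, add detection reagent and read luminescence after 25 min. A 4-parameter logistic model gives IC50.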
# [3] = TR-FRET, Mcl-1(171-327) / biotin-Bim (51-76)
# [4] = Homo sapiens, OPM-2, 16 h, read-out: OPM-2 10% FBS IC50 IP, OPM-2 cells, 10% FBS, 16 h, CellTiter-Glo
# [5] = 0.1 nM Mcl-1(171-327), 0.05 nM biotin-Bim (51-76)
# [6] = read-out: OPM-2 10% FBS IC50 IP, OPM-2 cells, 10% FBS, 16 h incubation
# [7] = read-out: OPM-2 10% FBS IC50 IP, OPM-2 cells, 10% FBS, 16 h, CellTiter-Glo
# Chain of recombinant human Mcl-1 (residues 171-327) / Bim interaction (Q07820 171-327): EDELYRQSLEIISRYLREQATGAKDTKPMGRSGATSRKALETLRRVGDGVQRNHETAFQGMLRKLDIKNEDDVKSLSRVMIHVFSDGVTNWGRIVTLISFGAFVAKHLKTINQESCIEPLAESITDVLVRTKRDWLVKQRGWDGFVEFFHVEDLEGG
Compound,"pIC50 [1, 3]","pIC50 [2, 4]",other results
"C[C@@H]1[C@@H](C)C/C=C/[C@](O)(c2nccn2C)[C@@H]2CC[C@H]2CN2C[C@@]3(CCCc4cc(Cl)ccc43)COc3ccc(cc32)C(=O)NS1(=O)=O [Example 100186, (1S,3′R,6′R,7′R,8′E,11′S,12′R)-6-chloro-7′-hydroxy-11′,12′-dimethyl-7′-(1-methyl-1H-imidazol-2-yl)-3,4-dihydro-2H,15′H-spiro[naphthalene-1,22′-[20]oxa[13]thia[1,14]diazatetracyclo [14.7.2.0~3,6~.0~19,24~]pentacosa[8,16,18,24]tetraen]-15′-one 13′,13′-dioxide]",9.42,6.51,
CCO[C@]1(CN2CCN3CCS(=O)(=O)C[C@@H]3C2)/C=C/C[C@H](C)[C@@H](C)S(=O)(=O)NC(=O)c2ccc3c(c2)N(C[C@@H]2CC[C@H]21)C[C@@]1(CCCc2cc(Cl)ccc21)CO3 [Example 121],,,"pIC50 [1, 5]: 10.08; pIC50 [2, 6]: 6.92"
"C[C@@H]1[C@@H](C)C/C=C/[C@@](O)(CC(=O)N(C)CCN(C)C)[C@@H]2CC[C@H]2CN2C[C@@]3(CCCc4cc(Cl)ccc43)COc3ccc(cc32)C(=O)NS1(=O)=O [Example 100282, 2-((1S,3′R,6′R,7′S,8′E,11′S,12′R)-6-chloro-7′-hydroxy-11′,12′-dimethyl-13′,13′-dioxido-15′-oxo-3,4-dihydro-2H-spiro[naphthalene-1,22′-[20]oxa[13]thia[1,14]diazatetracyclo [14.7.2.0~3,6~.0~19,24~]pentacosa[8,16,18,24]tetraen]-7′-yl)-N-(2-(dimethylamino)ethyl)-N-methylacetamide]",9.57,,"pIC50 [2, 7]: 5.89"
C[C@@H]1[C@@H](C)C/C=C/[C@@](O)(CCCO)[C@@H]2CC[C@H]2CN2C[C@@]3(CCCc4cc(Cl)ccc43)COc3ccc(cc32)C(=O)NS1(=O)=O (stereo in doubt) [Example 100128],10.05,6.66,
"CO[C@@]1(C[C@H](O)c2ccccn2)/C=C/C[C@H](C)[C@@H](C)S(=O)(=O)NC(=O)c2ccc3c(c2)N(C[C@@H]2CC[C@H]21)C[C@@]1(CCCc2cc(Cl)ccc21)CO3 (single isomer, unassigned) [Example 100489]",9.06,,"pIC50 [2, 7]: 6.74"
"CO[C@]1(c2cnc(Cl)n2C)/C=C/C[C@H](C)[C@@H](C)S(=O)(=O)NC(=O)c2ccc3c(c2)N(C[C@@H]2CC[C@H]21)C[C@@]1(CCCc2cc(Cl)ccc21)CO3 (single isomer, unassigned) [Example 100539]",9.84,6.14,
"C=CCOC[C@]1(O)/C=C/C[C@H](C)[C@@H](C)S(=O)(=O)NC(=O)c2ccc3c(c2)N(C[C@@H]2CC[C@H]21)C[C@@]1(CCCc2cc(Cl)ccc21)CO3 (single isomer, unassigned) [Example 100496]",8.57,5.30,
"CO[C@@]1(C)/C=C/C[C@H](C)[C@@H](CCO)S(=O)(=O)NC(=O)c2ccc3c(c2)N(C[C@@H]2CC[C@H]21)C[C@@]1(CCCc2cc(Cl)ccc21)CO3 (single isomer, unassigned) [Example 100596]",9.64,,"pIC50 [2, 7]: 6.73"
"CO[C@@]1(CN2CCN3CCN(C(=O)CCS(=O)(=O)c4ccccc4)C[C@H]3C2)/C=C/C[C@H](C)[C@@H](C)S(=O)(=O)NC(=O)c2ccc3c(c2)N(C[C@@H]2CC[C@H]21)C[C@@]1(CCCc2cc(Cl)ccc21)CO3 (single isomer, unassigned) [Example 295]",,,"pIC50 [1, 5]: 9.49; pIC50 [2, 6]: 6.98"
"CC#C[C@]1(OC)/C=C/C[C@H](C)[C@@H](C)S(=O)(=O)NC(=O)c2ccc3c(c2)N(C[C@@H]2CC[C@H]21)C[C@@]1(CCCc2cc(Cl)ccc21)CO3 [Example 100501, (1S,3′R,6′R,7′S,8′E,11′S,12′R)-6-chloro-7′-methoxy-11′,12′-dimethyl-7′-(1-propyn-1-yl)-3,4-dihydro-2H,15′H-spiro[naphthalene-1,22′-[20]oxa[13]thia[1,14]diazatetracyclo [14.7.2.0~3,6~.0~19,24~]pentacosa[8,16,18,24]tetraen]-15′-one 13′,13′-dioxide]",10.05,6.29,
"CO[C@H](C)[C@]1(OC)/C=C/C[C@H](C)[C@@H](C)S(=O)(=O)NC(=O)c2ccc3c(c2)N(C[C@@H]2CC[C@H]21)C[C@@]1(CCCc2cc(Cl)ccc21)CO3 [Example 100475, (1S,3′R,6′R,7′S,8′E,11′S,12′R)-6-chloro-7′-methoxy-7′-((1R)-1-methoxyethyl)-11′,12′-dimethyl-3,4-dihydro-2H,15′H-spiro[naphthalene-1,22′-[20]oxa[13]thia[1,14]diazatetracyclo [14.7.2.0~3,6~.0~19,24~]pentacosa[8,16,18,24]tetraen]-15′-one 13′,13′-dioxide]",8.86,,"pIC50 [2, 7]: 5.57"
"CCC[C@]1(O)/C=C/C[C@H](C)[C@@H](C)S(=O)(=O)NC(=O)c2ccc3c(c2)N(C[C@@H]2CC[C@H]21)C[C@@]1(CCCc2cc(Cl)ccc21)CO3 [Example 100232, (1S,3′R,6′R,7′S,8′E,11′S,12′R)-6-chloro-7′-hydroxy-11′,12′-dimethyl-7′-propyl-3,4-dihydro-2H,15′H-spiro[naphthalene-1,22′-[20]oxa[13]thia[1,14]diazatetracyclo [14.7.2.0~3,6~.0~19,24~]pentacosa[8,16,18,24]tetraen]-15′-one 13′,13′-dioxide]",,6.41,pIC50 [1]: 9.82
"C[C@@H]1[C@@H](C)C/C=C/[C@@](O)(CC#N)[C@@H]2CC[C@H]2CN2C[C@@]3(CCCc4cc(Cl)ccc43)COc3ccc(cc32)C(=O)NS1(=O)=O [Example 100051, ((1S,3′R,6′R,7′S,8′E,11′S,12′R)-6-chloro-7′-hydroxy-11′,12′-dimethyl-13′,13′-dioxido-15′-oxo-3,4-dihydro-2H-spiro[naphthalene-1,22′-[20]oxa[13]thia[1,14]diazatetracyclo [14.7.2.0~3,6~.0~19,24~]pentacosa[8,16,18,24]tetraen]-7′-yl)acetonitrile]",,,"pIC50 [1]: 9.66; pIC50 [2, 7]: 6.30"
"CO[C@@]1(CN2CCN3CCOC[C@H]3C2)/C=C/C[C@H](C)[C@@H](C)S(=O)(=O)NC(=O)c2ccc3c(c2)N(C[C@@H]2CC[C@H]21)C[C@@]1(CCCc2cc(Cl)ccc21)CO3 [Example 57, (1S,3′R,6′R,7′S,8′E,11′S,12′R)-6-chloro-7′-((9aR)-hexahydropyrazino[2,1-c][1,4]oxazin-8(1H)-ylmethyl)-7′-methoxy-11′,12′-dimethyl-3,4-dihydro-2H,15′H-spiro[naphthalene-1,22′-[20]oxa[13]thia[1,14]diazatetracyclo [14.7.2.0~3,6~.0~19,24~]pentacosa[8,16,18,24]tetraen]-15′-one 13′,13′-dioxide]",,,"pIC50 [1, 5]: 9.59; pIC50 ([2]; Homo sapiens, OPM-2, 16 h, read-out: OPM-2 10% FBS IC50 IP, OPM-2 cells, 10% FBS, 16 h incubation): 7.05"
"CO[C@@]1(C#CCCN2CCOCC2)/C=C/C[C@H](C)[C@@H](C)S(=O)(=O)NC(=O)c2ccc3c(c2)N(C[C@@H]2CC[C@H]21)C[C@@]1(CCCc2cc(Cl)ccc21)CO3 (single isomer, unassigned) [Example 100012]",9.56,5.95,
"CCOC[C@@]1(O)CCC[C@H](C)[C@@H](C)S(=O)(=O)NC(=O)c2ccc3c(c2)N(C[C@@H]2CC[C@H]21)C[C@@]1(CCCc2cc(Cl)ccc21)CO3 [Example 100190, (1S,3′R,6′R,7′R,11′S,12′R)-6-chloro-7′-(ethoxymethyl)-7′-hydroxy-11′,12′-dimethyl-3,4-dihydro-2H,15′H-spiro[naphthalene-1,22′-[20]oxa[13]thia[1,14]diazatetracyclo [14.7.2.0~3,6~.0~19,24~]pentacosa[16,18,24]trien]-15′-one 13′,13′-dioxide]",8.32,5.61,
"CCC(=O)C[C@]1(OC)/C=C/C[C@H](C)[C@@H](C)S(=O)(=O)NC(=O)c2ccc3c(c2)N(C[C@@H]2CC[C@H]21)C[C@@]1(CCCc2cc(Cl)ccc21)CO3 [Example 100457, (1S,3′R,6′R,7′S,8′E,11′S,12′R)-6-chloro-7′-methoxy-11′,12′-dimethyl-7′-(2-oxobutyl)-3,4-dihydro-2H,15′H-spiro[naphthalene-1,22′-[20]oxa[13]thia[1,14]diazatetracyclo [14.7.2.0~3,6~.0~19,24~]pentacosa[8,16,18,24]tetraen]-15′-one 13′,13′-dioxide]",9.48,6.01,
"COC(OC)c1cncc([C@@]2(O)/C=C/C[C@H](C)[C@@H](C)S(=O)(=O)NC(=O)c3ccc4c(c3)N(C[C@@H]3CC[C@H]32)C[C@@]2(CCCc3cc(Cl)ccc32)CO4)c1 (single isomer, unassigned) [Example 100507]",9.37,6.31,
"C[C@@H]1[C@@H](C)CCC[C@](C)([C@H]2OC[C@@H](N(C)C)CO2)[C@@H]2CC[C@H]2CN2C[C@@]3(CCCc4cc(Cl)ccc43)COc3ccc(cc32)C(=O)NS1(=O)=O [Example 100328, (1S,3′R,6′R,7′S,11′S,12′R)-6-chloro-7′-(cis-5-(dimethylamino)-1,3-dioxan-2-yl)-7′,11′,12′-trimethyl-3,4-dihydro-2H,15′H-spiro[naphthalene-1,22′-[20]oxa[13]thia[1,14]diazatetracyclo [14.7.2.0~3,6~.0~19,24~]pentacosa[16,18,24]trien]-15′-one 13′,13′-dioxide]",9.58,6.74,
